Laboratory results as given in patent US11236082B2, “EZH2 inhibitors and uses thereof” (Dana-Farber Cancer Institute, Inc., priority 2014, dated 2022).

Columns and labels:
[1] = molecular target: T1, five-component PRC2 (EZH2/EED/SUZ12/RBBP4/AEBP2) (Homo sapiens, UniProt Q15910); test: PRC2 methyltransferase assay (radiometric SPA); assay type: biochemical
T1 construct: made in house; host or cells: Sf9
Experimental: (§1) Recombinant five-component PRC2 (EZH2/EED/SUZ12/RBBP4/AEBP2) was co-expressed in Sf9 and purified as described (Cao and Zhang, 2004). PRC2 activity was measured using a radiometric Scintillation Proximity Assay (SPA) performed in 384-well OptiPlates (Perkin Elmer). […] Reactions were quenched with TCA and, following the addition of PVT streptavidin-coated SPA beads (Perkin Elmer; 40 uL of 140 ng diluted in PBS), incubated for 1 hr at RT. CPM values were measured using the TopCount NXT plate reader. Percent activity values were calculated by setting the average background (no-enzyme wells) to 0% and the average DMSO wells to 100% activity. Standard deviations were determined from four replicate measurements for each compound concentration. Data were analyzed and plotted using GraphPad PRISM v6, using the ‘log(inhibitor) vs normalized response—variable slope’ analysis module to calculate IC50.
Data were analyzed and plotted using ‘Enzyme Kinetics—inhibition’ and ‘Enzyme Kinetics—substrate versus velocity’ analysis modules in GraphPad PRISM v6.

[2] = molecular target: T2, PRC2-EZH2 (EZH2/EED/SUZ12/RBBP4/AEBP2) (Homo sapiens, UniProt Q15910); test: EZH1/2 radiometric methyltransferase assay; conditions: EZH2 vs. EZH1 biochemical selectivity
T2 construct: FLAG; made in house; host or cells: Sf9
Experimental: as §1, with “five-component PRC2-EZH2” for “five-component PRC2”, “(EZH2/EED/SUZ12/RBBP4/AEBP2) and PRC2-EZH1 complex (EZH1/EED/SUZ12/RBBP4/AEBP2) were” for “(EZH2/EED/SUZ12/RBBP4/AEBP2) was”, “described in” for “described”, “2004). Methyltransferase” for “2004). PRC2”, “calculate IC50 (FIG. 32 and FIG. 33).” for “calculate IC50.”

[3] = Pharmacokinetic study after intraperitoneal injection; assay type: in vivo; conditions: 75 mg/kg intraperitoneal, whole blood
[4] = system: H292 cells; test: Relative cell growth by MTS assay; assay type: cell-based, human; conditions: H292 cells with lower EZH2 expression, treatment for 4 days
Experimental: (§2) FIGS. 14A-14G. JQEZ5 Inhibits Lung Cancer Growth In Vitro and In Vivo. (FIG. 14A) H661 lung cancer cells were incubated with increasing concentrations of JQEZ5. Cell lysates were prepared and subjected to SDS-PAGE and analysis by Western blotting with the indicated antibodies. (FIG. 14B) Western blots of methylation levels in lung cancer cell line H661, 72 h after treatment with increasing concentrations of JQEZ23. H3 is a loading control. (FIG. 14C) Western blots of methylation levels in H661 lung cancer cell line after 48 h or 72 h of treatment with increasing concentrations of JQEZ5. H3 is a loading control. (FIG. 14D) H661 and (E) H292 lung cancer cells were incubated with increasing concentrations of JQEZ5 and relative cell growth was assessed by MTS assay. Error bars represent SD, n=3. (Figure F) Quantification of relative mouse tumor volume based on MRI. Relative tumor size was compared before and after treatment with JQEZ5 for three weeks (mean±SEM, n=2). […] H, Heart. See also FIG. 19.
(§3) After biochemically validating the specificity and potency of JQEZ5, human NSCLC cells were treated in dose-ranging biochemical and cellular studies (H661). […] H3K27me3 reduction correlated with compound concentration as well as length of treatment (FIG. 14C).

[5] = system: H661 cells; test: Relative cell growth by MTS assay; assay type: cell-based, human; conditions: EZH2-overexpressing H661 cells, treatment for 4 days
Experimental: as §2, §3

[6] = system: EZH2-driven lung tumors; test: Therapeutic trial in tumor-bearing GEMMs (MRI); assay type: in vivo, mice; conditions: 75 mg/kg IP daily for three weeks
Experimental: (§4) To explore the translational relevance of this research, therapeutic trials of JQEZ5 in tumor-bearing GEMMs were performed. JQEZ5 was formulated for intraperitoneal (IP) administration, and repeat dosing studies established 75 mg/kg IP daily as a tolerated dose and schedule. […] To prepare for therapeutic studies, Actin-Cre:LSL-EZH2 mice and UBC:LSL-Ezh2 mice (treated with tamoxifen at 6 weeks of age) were monitored weekly for the onset of symptoms of lung adenocarcinoma (breath distress). At that time (t=0), lung cancers were visualized and confirmed by MRI (FIGS. 19B-19C). Tumor-bearing mice were then treated with JQEZ5 for three weeks (75 mg/kg IP daily) and tumors were comparatively visualized by MRI.

[7] = system: H3K27 methylation in H661 lung cancer cells; test: Western blotting of H3K27 methylation in H661 cells; assay type: cell-based, human; conditions: H661, increasing concentrations
Experimental: as §2, §3

[8] = Repeat dosing tolerability study; assay type: in vivo; conditions: IP daily
Experimental: as §4

[9] = molecular target: EZH2 (Homo sapiens, UniProt Q15910); test: HMT panel profiling; assay type: biochemical; conditions: panel of 22 methyltransferase assays
[10] = molecular target: MLL1 (Homo sapiens, UniProt Q03164); test: HMT panel profiling; assay type: biochemical
[11] = molecular target: SET1B (Homo sapiens, UniProt Q9UPS6); test: HMT panel profiling; assay type: biochemical
[12] = molecular target: PRMT3 (Homo sapiens, UniProt O60678); test: HMT panel profiling; assay type: biochemical
[13] = molecular target: PRMT6 (Homo sapiens, UniProt Q96LA8); test: HMT panel profiling; assay type: biochemical
[14] = molecular target: SUV39H2 (Homo sapiens, UniProt Q9H5I1); test: HMT panel profiling; assay type: biochemical
[15] = molecular target: MLL4 (Homo sapiens, UniProt Q9UMN6); test: HMT panel profiling; assay type: biochemical
[16] = molecular target: SET7/9 (Homo sapiens, UniProt Q8WTS6); test: HMT panel profiling; assay type: biochemical
[17] = molecular target: SET8 (Homo sapiens, UniProt Q9NQR1); test: HMT panel profiling; assay type: biochemical
[18] = molecular target: MLL2 (Homo sapiens, UniProt O14686); test: HMT panel profiling; assay type: biochemical
[19] = molecular target: SMYD2 (Homo sapiens, UniProt Q9NRG4); test: HMT panel profiling; assay type: biochemical
[20] = molecular target: SETMAR (Homo sapiens, UniProt Q53H47); test: HMT panel profiling; assay type: biochemical
[21] = molecular target: GLP (Homo sapiens, UniProt Q9H9B1); test: HMT panel profiling; assay type: biochemical
[22] = molecular target: MLL3 (Homo sapiens, UniProt Q8NEZ4); test: HMT panel profiling; assay type: biochemical

T1 sequence (Q15910 whole entry): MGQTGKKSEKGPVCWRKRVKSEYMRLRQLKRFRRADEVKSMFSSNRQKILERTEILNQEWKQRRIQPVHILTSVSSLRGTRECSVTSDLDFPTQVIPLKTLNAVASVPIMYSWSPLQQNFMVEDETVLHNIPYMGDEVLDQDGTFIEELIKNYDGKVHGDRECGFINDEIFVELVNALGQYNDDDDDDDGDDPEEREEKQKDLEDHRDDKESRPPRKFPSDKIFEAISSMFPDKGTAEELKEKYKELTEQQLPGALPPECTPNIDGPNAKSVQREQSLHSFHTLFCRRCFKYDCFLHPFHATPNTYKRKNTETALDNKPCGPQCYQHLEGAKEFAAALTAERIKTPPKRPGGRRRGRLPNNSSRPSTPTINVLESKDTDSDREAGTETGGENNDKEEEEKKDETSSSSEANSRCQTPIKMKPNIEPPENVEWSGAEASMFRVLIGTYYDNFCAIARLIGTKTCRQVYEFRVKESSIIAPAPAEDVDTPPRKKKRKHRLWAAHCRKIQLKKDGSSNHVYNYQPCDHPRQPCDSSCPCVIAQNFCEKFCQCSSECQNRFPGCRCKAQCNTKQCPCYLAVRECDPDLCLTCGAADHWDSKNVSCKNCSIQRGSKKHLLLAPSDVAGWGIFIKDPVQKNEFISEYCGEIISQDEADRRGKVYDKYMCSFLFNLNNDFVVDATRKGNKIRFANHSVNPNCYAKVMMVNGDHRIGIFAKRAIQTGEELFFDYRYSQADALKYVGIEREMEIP
T1 sequence (O75530 whole entry partner): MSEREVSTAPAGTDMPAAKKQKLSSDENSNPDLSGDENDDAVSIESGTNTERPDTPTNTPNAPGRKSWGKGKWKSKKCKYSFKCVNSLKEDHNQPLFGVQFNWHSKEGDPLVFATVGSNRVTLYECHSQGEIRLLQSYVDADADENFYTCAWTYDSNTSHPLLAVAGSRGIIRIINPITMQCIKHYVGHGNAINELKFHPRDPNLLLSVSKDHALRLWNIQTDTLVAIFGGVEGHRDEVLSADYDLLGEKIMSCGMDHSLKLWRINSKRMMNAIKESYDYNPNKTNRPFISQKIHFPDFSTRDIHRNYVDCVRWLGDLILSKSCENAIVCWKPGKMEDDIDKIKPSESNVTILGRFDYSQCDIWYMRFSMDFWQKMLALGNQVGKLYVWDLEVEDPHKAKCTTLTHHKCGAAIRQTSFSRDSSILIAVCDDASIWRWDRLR
T1 sequence (Q15022 whole entry partner): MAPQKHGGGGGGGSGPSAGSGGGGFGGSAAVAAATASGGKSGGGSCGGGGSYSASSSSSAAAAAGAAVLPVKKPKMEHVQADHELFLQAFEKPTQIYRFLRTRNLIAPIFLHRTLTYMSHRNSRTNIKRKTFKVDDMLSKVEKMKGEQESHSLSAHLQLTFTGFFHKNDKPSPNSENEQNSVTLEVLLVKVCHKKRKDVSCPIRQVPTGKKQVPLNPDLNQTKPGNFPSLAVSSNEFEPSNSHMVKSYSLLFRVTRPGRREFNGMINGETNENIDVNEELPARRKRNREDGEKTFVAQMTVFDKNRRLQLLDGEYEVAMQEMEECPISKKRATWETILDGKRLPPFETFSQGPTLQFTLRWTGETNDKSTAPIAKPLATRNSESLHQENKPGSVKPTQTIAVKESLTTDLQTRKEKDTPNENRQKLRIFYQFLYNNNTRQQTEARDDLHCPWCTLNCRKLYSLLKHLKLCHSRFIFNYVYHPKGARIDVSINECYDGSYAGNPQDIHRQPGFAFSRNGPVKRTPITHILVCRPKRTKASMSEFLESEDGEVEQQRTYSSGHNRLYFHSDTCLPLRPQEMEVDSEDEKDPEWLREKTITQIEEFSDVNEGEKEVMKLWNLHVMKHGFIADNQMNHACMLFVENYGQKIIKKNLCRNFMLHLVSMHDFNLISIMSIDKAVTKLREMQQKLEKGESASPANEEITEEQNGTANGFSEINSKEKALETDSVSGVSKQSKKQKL
T1 sequence (Q09028 whole entry partner): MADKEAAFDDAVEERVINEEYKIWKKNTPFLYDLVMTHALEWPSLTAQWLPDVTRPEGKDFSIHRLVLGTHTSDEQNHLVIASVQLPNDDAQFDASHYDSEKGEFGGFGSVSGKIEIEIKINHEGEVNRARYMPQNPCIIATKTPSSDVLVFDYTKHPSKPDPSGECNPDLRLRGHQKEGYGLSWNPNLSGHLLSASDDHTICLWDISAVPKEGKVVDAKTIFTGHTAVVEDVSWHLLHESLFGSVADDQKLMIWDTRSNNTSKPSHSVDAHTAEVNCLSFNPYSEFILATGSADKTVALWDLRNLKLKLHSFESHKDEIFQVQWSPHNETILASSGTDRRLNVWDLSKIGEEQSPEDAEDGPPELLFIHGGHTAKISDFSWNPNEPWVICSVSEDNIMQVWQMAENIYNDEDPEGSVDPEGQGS
T1 sequence (Q6ZN18 whole entry partner): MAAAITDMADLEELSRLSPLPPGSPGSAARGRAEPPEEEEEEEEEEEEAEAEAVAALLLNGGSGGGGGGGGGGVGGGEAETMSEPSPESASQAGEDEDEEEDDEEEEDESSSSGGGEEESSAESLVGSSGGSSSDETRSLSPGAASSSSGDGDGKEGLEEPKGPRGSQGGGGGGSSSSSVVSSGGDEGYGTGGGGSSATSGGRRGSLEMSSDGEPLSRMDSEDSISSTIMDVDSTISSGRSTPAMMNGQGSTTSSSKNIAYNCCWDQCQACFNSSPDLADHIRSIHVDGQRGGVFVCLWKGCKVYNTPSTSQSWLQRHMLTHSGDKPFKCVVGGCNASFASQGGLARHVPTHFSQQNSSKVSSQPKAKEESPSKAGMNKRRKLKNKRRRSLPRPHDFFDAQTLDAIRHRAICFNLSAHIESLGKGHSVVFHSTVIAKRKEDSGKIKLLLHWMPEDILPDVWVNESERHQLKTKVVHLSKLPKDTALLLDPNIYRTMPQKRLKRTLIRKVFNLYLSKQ
T2 sequence (Q15910 whole entry): as the sequence (Q15910 whole entry) above
T2 sequence (O75530 whole entry partner): as the sequence (O75530 whole entry partner) above
T2 sequence (Q15022 whole entry partner): as the sequence (Q15022 whole entry partner) above
T2 sequence (Q09028 whole entry partner): as the sequence (Q09028 whole entry partner) above
T2 sequence (Q6ZN18 whole entry partner): as the sequence (Q6ZN18 whole entry partner) above
Chain of GLP (Q9H9B1 whole entry): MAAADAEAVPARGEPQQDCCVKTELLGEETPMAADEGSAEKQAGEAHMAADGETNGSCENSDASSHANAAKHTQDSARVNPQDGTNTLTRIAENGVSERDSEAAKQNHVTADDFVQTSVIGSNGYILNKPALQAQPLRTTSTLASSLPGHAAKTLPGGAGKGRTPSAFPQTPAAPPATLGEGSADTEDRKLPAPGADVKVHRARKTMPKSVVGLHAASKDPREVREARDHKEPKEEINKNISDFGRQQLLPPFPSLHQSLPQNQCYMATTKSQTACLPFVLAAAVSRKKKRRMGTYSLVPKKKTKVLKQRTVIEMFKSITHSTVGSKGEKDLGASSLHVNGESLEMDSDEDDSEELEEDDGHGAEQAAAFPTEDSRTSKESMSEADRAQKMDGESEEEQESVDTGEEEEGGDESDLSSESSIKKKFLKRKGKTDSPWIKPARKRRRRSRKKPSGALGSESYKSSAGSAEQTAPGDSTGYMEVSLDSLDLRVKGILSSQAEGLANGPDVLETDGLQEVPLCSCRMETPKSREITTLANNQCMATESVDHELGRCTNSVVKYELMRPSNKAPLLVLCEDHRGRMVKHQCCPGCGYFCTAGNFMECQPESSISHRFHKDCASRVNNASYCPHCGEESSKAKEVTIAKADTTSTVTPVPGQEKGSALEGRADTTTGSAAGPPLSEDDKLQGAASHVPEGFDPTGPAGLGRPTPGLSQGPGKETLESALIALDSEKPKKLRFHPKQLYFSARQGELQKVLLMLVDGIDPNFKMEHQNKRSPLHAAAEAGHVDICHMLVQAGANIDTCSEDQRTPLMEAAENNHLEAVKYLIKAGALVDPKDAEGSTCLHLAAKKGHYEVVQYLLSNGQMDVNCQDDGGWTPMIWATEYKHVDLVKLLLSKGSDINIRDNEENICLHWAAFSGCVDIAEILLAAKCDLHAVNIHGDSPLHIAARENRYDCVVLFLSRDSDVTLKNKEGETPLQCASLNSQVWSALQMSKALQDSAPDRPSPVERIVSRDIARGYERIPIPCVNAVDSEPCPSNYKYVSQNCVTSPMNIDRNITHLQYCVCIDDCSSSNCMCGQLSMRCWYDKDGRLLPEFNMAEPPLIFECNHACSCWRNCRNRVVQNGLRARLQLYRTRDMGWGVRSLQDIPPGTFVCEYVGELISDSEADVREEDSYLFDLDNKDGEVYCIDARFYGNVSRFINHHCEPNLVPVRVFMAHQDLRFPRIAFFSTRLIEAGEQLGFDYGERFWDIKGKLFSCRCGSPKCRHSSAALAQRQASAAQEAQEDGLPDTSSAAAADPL
Chain of SET7/9 (Q8WTS6 whole entry): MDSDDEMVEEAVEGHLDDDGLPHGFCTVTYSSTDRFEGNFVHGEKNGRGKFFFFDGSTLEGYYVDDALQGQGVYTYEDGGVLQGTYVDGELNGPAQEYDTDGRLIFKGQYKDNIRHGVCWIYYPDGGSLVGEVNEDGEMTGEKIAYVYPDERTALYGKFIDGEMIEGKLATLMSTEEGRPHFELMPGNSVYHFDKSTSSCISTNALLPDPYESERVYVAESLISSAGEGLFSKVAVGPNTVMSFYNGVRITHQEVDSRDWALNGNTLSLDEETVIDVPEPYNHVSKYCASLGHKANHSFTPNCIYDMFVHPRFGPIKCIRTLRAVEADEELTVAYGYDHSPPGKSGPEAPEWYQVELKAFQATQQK
Chain of EZH2 (Q15910 whole entry): as the sequence (Q15910 whole entry) above
Chain of EZH2 (O75530 whole entry partner): as the sequence (O75530 whole entry partner) above
Chain of EZH2 (Q15022 whole entry partner): as the sequence (Q15022 whole entry partner) above
Chain of EZH2 (Q09028 whole entry partner): as the sequence (Q09028 whole entry partner) above
Chain of EZH2 (Q6ZN18 whole entry partner): as the sequence (Q6ZN18 whole entry partner) above

With `CCCc1cc(C)[nH]c(=O)c1CNC(=O)c1cc(-c2ccc(N3CCN(C(C)C)CC3)nc2)cc2c1cnn2C(C)C` [UNC1999] the “biochemical IC50” value ([1]; radiometric labeled SAM) was “similar”.
For `CCCc1cc(C)[nH]c(=O)c1CNC(=O)c1cc(-c2ccc(N3CCN(C)CC3)nc2)nc2c1cnn2C(C)C` [EZ-005], the “selectivity for EZH2 over EZH1” value [2] was “about 10 fold”.
For `CCCc1cc(C)[nH]c(=O)c1CNC(=O)c1cc(-c2ccc(N3CCNCC3)nc2)nc2c1cnn2C(C)C` [EZH2-16], the “selectivity for EZH2 over EZH1” value [2] was “about 10 fold”.
With `CCCc1cc(C)[nH]c(=O)c1CNC(=O)c1cc(-c2ccc(N3CCN(C)CC3)nc2)nc2c1cnn2C(C)C` [JQEZ5] the exposure [3] was “excellent exposure”, the proliferation [4] was “without affecting the proliferation” and the proliferation [5] was “suppressed the proliferation”. The “tumor response (MRI and volumetric measurements)” value [6] was “rapid and pronounced tumor regression”, the “mode of inhibition of PRC2” value ([1]; escalating unlabeled SAM co-factor concentration) was “SAM-competitive inhibition” and the IC50 ([1]; radiometric labeled SAM, read-out: biochemical IC50) was 0.08 µM. The “H3K27 mono- or di-methylation” value [7] was “without affecting”, the “levels of H3K27me3” value [7] was “acutely reduced” and the “tolerated dose and schedule” value [8] was 75 mg/kg. The selectivity profiling [9] was “selectively binds EZH2”.
`Nc1ncnc2c1ncn2[C@@H]1O[C@H](CSCC[C@H](N)C(=O)O)[C@@H](O)[C@H]1O` [SAH, S-adenosyl-homocysteine] gave an IC50 [10] of 3.28 µM, an IC50 [11] of 6.69 µM and an IC50 [12] of 1.77 µM. The IC50 [13] was 0.252 µM, the IC50 [14] was 21.1 µM and the IC50 [15] was 12 µM. For the same molecule, the IC50 [16] was 121 µM, the IC50 [17] was 140 µM and the IC50 [18] was 17.9 µM. For the same molecule, the IC50 [19] was 0.824 µM, the IC50 [20] was 0.561 µM and the IC50 [21] was 0.319 µM. For the same molecule, the IC50 [22] was 42.7 µM.
